Results: patent US20130018091A1, “TREATMENT OF ALLODYNIA AND HYPERALGESIA” (priority 2009, published 2013)

Tests used:
CF1 mouse = test: Formalin-induced nociception model in mice (hyperalgesia and inflammation); format: in vivo; conditions: 45.0 mg/kg p.o., n=8/group; for Drug-treated AUC (duration of licking): formalin 1 hour after dosing
Description: An injection of 0.5% formalin is made into the planter region of a CF1 mouse (obtained from Charles River, Inc.) right hind paw. This elicits a distinct biphasic behavioral profile characterized by the mouse licking the affected paw. Immediately following the injection the mouse licks the paw for about 10 minutes. This is phase 1 (acute) and is followed by a brief latent period where there is little behavioral activity. A more prolonged period of about 20 to 30 minutes of paw licking ensues which constitutes phase 2 (inflammatory).
Prior to the administration of the test drug or vehicle each mouse undergoes a 15-minute conditioning period in one of several 6″ tall plexiglass observation tubes (4″ diameter) that are placed in front of a mirror. Following the conditioning period, doses of tonabersat will be administered p.o. and the mouse returned to its home tube. At a time determined to correlate with peak plasma levels (1 hour), formalin will be injected sub-dermally (20 ul; 27 gauge needle) into the plantar surface of the right hind foot. The bevel of the needle is placed facing down toward the skin surface. Following injection of the formalin each animal is observed for the first 2 minutes of each 5 minute epoch for a total of 45 minutes. The cumulative length of licking for each 2 minute time period is measured. An animal receiving the requisite volume of vehicle is alternated with each mouse given the test drug. Animals are euthanized following the conclusion of the experiment. An n of 8 mice per group will be employed in this study.
Area under the curve (AUC) determination is made using the GraphPad Prism Version 3.03. Total AUC is calculated for both the test and control groups for both the acute and inflammatory phases. The AUC for individual animals for each phase is also calculated and converted to percentage of total AUC of control. The average percentages and SEM for both the drug treated and control are calculated and tested for significant difference.

Sprague-Dawley rats [1] = test: Chronic sciatic nerve ligation model in rats (mechanical allodynia, Von Frey); format: in vivo, rat; conditions: 30.0 mg/kg p.o., n=8/group
Description: Following a 10-day post-operative period after partial ligation of the sciatic nerve as described by Seltzer et al, each of the operated Sprague-Dawley rats (obtained from Charles River, Inc.) will be tested for the development of consistent, mechanical allodynia (pain response to a non-noxious stimulus). Animals are placed in a bottomless plexiglass box placed on a stainless steel platform with ¼″ holes. After at least a 30-min conditioning period in which rats are allowed to sit quietly in the cages on the platform, a baseline mechanical sensitivity is determined which represents the pre-drug 50% paw withdrawal threshold. […] The 50% threshold for foot withdrawal is determined by using the “Up and Down” step procedure. […] If the pressure of the largest diameter fiber raises the foot without a withdrawal, it is considered as “no response.” and recorded as >300 g on the data sheet.
Following the measurement of the initial predrug responses, the rats will be given an p.o. injection of tonabersat (n=8 rats per dose level). The mechanical threshold will then be assessed at 1, 2, 4, 6, 8, and 24 hrs post-injection to determine the duration of action of the test compound and the TPE in this model of mechanical allodynia. […]
The withdrawal threshold for each animal determined at each time point is computed using the “xoxox” step procedure originally developed by Dixon (1980). […]

Sprague-Dawley rats [2] = conditions: general statement, no dose given; cited from earlier work

Row | Structure (SMILES) | Drug-treated AUC (duration of licking) (CF1 mouse; Acute Phase, Control AUC 185.8) | % Inhibition of Control (CF1 mouse; Acute Phase, p = >0.05) [%] | Drug-treated AUC (duration of licking) (CF1 mouse; Inflammatory Phase, Control AUC 446.7) | % Inhibition of Control (CF1 mouse; Inflammatory Phase, p = <0.05) [%] | % Control (threshold for foot withdrawal relative to predrug mean) (Sprague-Dawley rats [1]; at time of peak effect 6.0 h, p = <0.05) [%] | Time of peak effect (Sprague-Dawley rats [1]; threshold for foot withdrawal) [h] | Activity in sciatic nerve ligation model (Sprague-Dawley rats [2])
1 | CC(=O)c1ccc2c(c1)[C@H](NC(=O)c1ccc(F)c(Cl)c1)[C@H](O)C(C)(C)O2 [Tonabersat, cis-6-acetyl-4-(S)-(3-chloro-4-fluorobenzoylamino)-3,4-dihydro-2,2-dimethyl-2H-1-benzopyran-3-(S)-ol] | 116.4 | 37.3 | 135.8 | 69.6 | 237.0 | 6.0 | –
2 | NCC1(CC(=O)O)CCCCC1 [gabapentin] | – | – | – | – | – | – | active
3 | CC(C)C[C@H](CN)CC(=O)O [pregabalin] | – | – | – | – | – | – | active
